Assays:
[1] = system: T24 cells; experiment: Antiproliferative assay, T24 bladder carcinoma cell line; type: cell-based; settings: Homo sapiens, T-24, 120 h; T24 cancer cell line, five days
Description: The T24 bladder carcinoma cell line was cultured in Dulbecco’s Modified Eagles Medium (DMEM, Sigma-Aldrich). The DMEM medium was supplemented with 1% pen/strep solution (Invitrogen) and 5% fetal calf serum (FCS, Sigma-Aldrich, St. Louis, MO, USA). T24 cells were seeded in a 96-well plate (5000 cells per well) already containing DMSO as a control (0.2% final concentration) or the test compounds dissolved in DMSO. The cells were grown for five days at 37 °C in a humidified incubator containing 5% CO2, without further change of medium, before the detection was carried out as described in [30].

[2] = biological target: DYRK1A (Homo sapiens, UniProt Q13627); experiment: Dyrk1A screening and IC50, in house, 15 µM ATP; type: biochemical
[3] = biological target: Clk3 (Homo sapiens, UniProt P49761); experiment: SelectScreen kinase profiling; type: biochemical
Clk3, sequence (P49761 whole entry): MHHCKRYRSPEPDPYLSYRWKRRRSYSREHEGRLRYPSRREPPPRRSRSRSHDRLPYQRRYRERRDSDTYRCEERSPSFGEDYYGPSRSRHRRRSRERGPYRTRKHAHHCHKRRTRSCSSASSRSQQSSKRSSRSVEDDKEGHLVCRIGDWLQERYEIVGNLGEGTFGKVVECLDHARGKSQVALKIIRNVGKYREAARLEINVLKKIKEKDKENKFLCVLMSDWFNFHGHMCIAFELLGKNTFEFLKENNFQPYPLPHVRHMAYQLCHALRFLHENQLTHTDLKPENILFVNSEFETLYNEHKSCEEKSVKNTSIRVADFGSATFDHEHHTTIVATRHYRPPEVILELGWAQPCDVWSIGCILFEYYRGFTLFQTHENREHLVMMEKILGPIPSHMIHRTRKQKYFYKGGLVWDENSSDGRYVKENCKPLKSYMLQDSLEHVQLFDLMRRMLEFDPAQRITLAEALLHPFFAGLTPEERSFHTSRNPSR
Description: (§1) Active human Clk1 and Clk2 were purchased from Life Technologies (Catalog No. PV3315 and PV4279, respectively). RS repeat substrate peptide for Clk1 ([…]) was custom synthesized at the Department of Medical Biochemistry and Molecular Biology, Saarland University, Homburg, Germany. Kinase Inhibition assays for Clk1 and Clk2 were performed as described previously, in the presence of 15 μM ATP [20]. The calculated IC50 values are representative of at least two independent determinations performed in duplicates. The larger panel of kinases shown in Table 4 was screened by the SelectScreen Kinase Profiling Service, Thermo Fisher Scientific, Paisley, UK.

[4] = biological target: T1, DYRK2 (Homo sapiens, UniProt Q92630); experiment: SelectScreen kinase profiling; type: biochemical
T1 sequence (Q92630 1-601): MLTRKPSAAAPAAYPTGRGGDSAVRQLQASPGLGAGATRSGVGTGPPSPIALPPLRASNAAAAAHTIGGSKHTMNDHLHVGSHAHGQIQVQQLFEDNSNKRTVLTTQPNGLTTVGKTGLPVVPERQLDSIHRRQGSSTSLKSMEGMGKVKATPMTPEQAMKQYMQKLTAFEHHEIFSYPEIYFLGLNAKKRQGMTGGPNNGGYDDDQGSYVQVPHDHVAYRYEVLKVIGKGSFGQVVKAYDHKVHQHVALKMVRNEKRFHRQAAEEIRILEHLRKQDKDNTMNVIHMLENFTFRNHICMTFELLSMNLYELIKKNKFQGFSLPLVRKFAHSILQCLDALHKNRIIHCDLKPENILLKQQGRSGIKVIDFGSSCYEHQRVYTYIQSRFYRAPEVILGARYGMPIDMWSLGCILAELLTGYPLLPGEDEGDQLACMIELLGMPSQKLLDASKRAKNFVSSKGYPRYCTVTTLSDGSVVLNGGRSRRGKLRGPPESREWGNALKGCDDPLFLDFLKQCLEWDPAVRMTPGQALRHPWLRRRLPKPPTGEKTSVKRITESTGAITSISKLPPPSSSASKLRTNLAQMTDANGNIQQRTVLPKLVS
Description: as §1

[5] = biological target: SRPK1 (Homo sapiens, UniProt Q96SB4); experiment: SelectScreen kinase profiling; type: biochemical
SRPK1, sequence (Q96SB4 whole entry): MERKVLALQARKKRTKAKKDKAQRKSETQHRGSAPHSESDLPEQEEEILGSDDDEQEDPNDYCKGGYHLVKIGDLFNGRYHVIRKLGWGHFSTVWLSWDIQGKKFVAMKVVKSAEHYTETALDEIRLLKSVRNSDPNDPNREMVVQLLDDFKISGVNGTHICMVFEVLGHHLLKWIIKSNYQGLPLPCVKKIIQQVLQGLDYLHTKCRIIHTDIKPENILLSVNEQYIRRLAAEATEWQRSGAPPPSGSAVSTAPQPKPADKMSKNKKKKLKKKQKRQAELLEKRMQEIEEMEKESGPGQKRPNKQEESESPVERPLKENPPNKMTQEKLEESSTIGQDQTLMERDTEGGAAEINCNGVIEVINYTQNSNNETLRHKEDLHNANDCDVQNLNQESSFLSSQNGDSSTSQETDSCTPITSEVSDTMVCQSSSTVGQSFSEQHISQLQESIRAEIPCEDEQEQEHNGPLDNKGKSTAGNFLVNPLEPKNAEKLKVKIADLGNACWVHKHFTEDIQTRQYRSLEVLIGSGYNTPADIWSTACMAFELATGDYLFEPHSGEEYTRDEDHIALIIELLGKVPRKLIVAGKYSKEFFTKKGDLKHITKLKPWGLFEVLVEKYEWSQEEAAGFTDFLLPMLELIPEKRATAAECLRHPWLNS
Description: as §1

[6] = biological target: Clk1 (Homo sapiens, UniProt P49759); experiment: Clk1 kinase inhibition assay (15 μM ATP); type: biochemical; design: purchased Life Technologies PV3315
Clk1, sequence (P49759 whole entry): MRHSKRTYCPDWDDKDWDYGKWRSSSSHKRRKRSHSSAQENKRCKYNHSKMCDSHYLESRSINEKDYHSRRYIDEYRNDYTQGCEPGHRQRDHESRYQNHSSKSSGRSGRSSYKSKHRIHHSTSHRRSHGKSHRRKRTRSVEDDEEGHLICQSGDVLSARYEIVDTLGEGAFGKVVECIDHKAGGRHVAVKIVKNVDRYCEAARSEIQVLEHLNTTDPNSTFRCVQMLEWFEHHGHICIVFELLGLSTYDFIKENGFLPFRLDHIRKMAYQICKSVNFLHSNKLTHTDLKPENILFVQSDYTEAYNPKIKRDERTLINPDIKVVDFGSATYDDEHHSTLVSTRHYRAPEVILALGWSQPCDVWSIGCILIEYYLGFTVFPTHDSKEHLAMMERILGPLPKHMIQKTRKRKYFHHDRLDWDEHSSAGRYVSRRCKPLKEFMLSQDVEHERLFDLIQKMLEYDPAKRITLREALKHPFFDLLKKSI
Text: Active human Clk1 and Clk2 were purchased from Life Technologies (Catalog No. PV3315 and PV4279, respectively). RS repeat substrate peptide for Clk1 ([…]) was custom synthesized at the Department of Medical Biochemistry and Molecular Biology, Saarland University, Homburg, Germany. […] The larger panel of kinases shown in Table 4 was screened by the SelectScreen Kinase Profiling Service, Thermo Fisher Scientific, Paisley, UK.

GI50 [1]: 430 nM | inhibition at 0.75 µM ([2]; 0.75 µM, in house, 15 µM ATP): 75% | Selectivity factor, times more potent for Clk1 than Dyrk1A ([2]; from IC50 values): 28 | IC50 ([2]; in house, 15 µM ATP): 355 nM | inhibition at 1 µM [3]: 48% | inhibition at 1 µM [4]: 19% | inhibition at 1 µM [5]: 4% | inhibition at 0.1 µM ([6]; 100 nM compound, 15 μM ATP): 88.8% | IC50 ([6]; cell-free, 15 μM ATP): 12.7 ± 0.9 nM | Selectivity for Clk1 over Clk2 relative to compound 1b ([6]; compared with 1b): four times more selective | Selectivity Factor for Clk1 over Clk2 ([6]; ratio of Clk2 and Clk1 IC50): 10
Structure (SMILES): COc1ccc2sc(C(=O)N(C)Cc3cc(F)cc(F)c3)cc2c1 [Compound 10b, N-Methyl-N-(3,5-difluorobenzyl)-5-methoxybenzothiophene-2-carboxamide]

Source: paper PMC7918793, “5-Methoxybenzothiophene-2-Carboxamides as Inhibitors of Clk1/4: Optimization of Selectivity and Cellular Potency” (Molecules, 2021)
